Values joined by “and” are separate entries in the source; they are usually repeats but may differ in a detail not shown here. Identical values can stand only once.
Assay: xn = mol fraction of the nth substance listed

CN(C)CCO + O
viscosity
Conditions	293.15 K	298.15 K	303.15 K	308.15 K	313.15 K	318.15 K	323.15 K
101 kPa, x1 = 0.03444	–	–	1.45 mPa·s	–	1.14 mPa·s	–	0.91 mPa·s
101 kPa, x1 = 0.05	–	–	1.921 mPa·s	1.657 mPa·s	–	1.271 mPa·s	–
101 kPa, x1 = 0.07971	–	–	2.95 mPa·s and 2.92 mPa·s	–	2.01 mPa·s	–	1.56 mPa·s and 1.51 mPa·s
101 kPa, x1 = 0.08	4.245 mPa·s	3.487 mPa·s	2.898 mPa·s	2.44 mPa·s	–	1.791 mPa·s	1.557 mPa·s
101 kPa, x1 = 0.1003	–	–	3.662 mPa·s	3.042 mPa·s	2.555 mPa·s	2.183 mPa·s	–
101 kPa, x1 = 0.1187	–	–	4.64 mPa·s	–	3.19 mPa·s	–	2.31 mPa·s
101 kPa, x1 = 0.1419	–	–	5.19 mPa·s	–	–	–	2.51 mPa·s
101 kPa, x1 = 0.1993	–	–	7.496 mPa·s	6.012 mPa·s	4.87 mPa·s	4.018 mPa·s	–
101 kPa, x1 = 0.2947	–	–	9.838 mPa·s	7.806 mPa·s	6.256 mPa·s	5.104 mPa·s	–
101 kPa, x1 = 0.3489	–	–	10.24 mPa·s	8.126 mPa·s	6.525 mPa·s	5.309 mPa·s	–
101 kPa, x1 = 0.4004	–	–	10.1 mPa·s	8.019 mPa·s	6.443 mPa·s	5.268 mPa·s	–
101 kPa, x1 = 0.453	–	–	9.546 mPa·s	7.626 mPa·s	6.189 mPa·s	5.067 mPa·s	–
101 kPa, x1 = 0.504	–	–	8.735 mPa·s	7.048 mPa·s	5.741 mPa·s	4.741 mPa·s	–
101 kPa, x1 = 0.6047	–	–	7.076 mPa·s	5.815 mPa·s	4.809 mPa·s	4.041 mPa·s	–
101 kPa, x1 = 0.7044	–	–	5.567 mPa·s	4.675 mPa·s	3.934 mPa·s	3.341 mPa·s	–
101 kPa, x1 = 0.8062	–	–	4.37 mPa·s	3.722 mPa·s	3.184 mPa·s	2.756 mPa·s	–
101 kPa, x1 = 0.9046	–	–	3.485 mPa·s	3.015 mPa·s	2.615 mPa·s	2.293 mPa·s	–
101.3 kPa, x1 = 0.1001	6.55 mPa·s	–	4 mPa·s	–	2.56 mPa·s	–	–
101.3 kPa, x1 = 0.1999	10.56 mPa·s	–	6.7 mPa·s	–	4.2 mPa·s	–	3.19 mPa·s
101.3 kPa, x1 = 0.3	13.17 mPa·s	–	8.53 mPa·s	–	5.23 mPa·s	–	3.69 mPa·s
101.3 kPa, x1 = 0.4	14.4 mPa·s	–	9.37 mPa·s	–	5.7 mPa·s	–	3.86 mPa·s
101.3 kPa, x1 = 0.5	14.13 mPa·s	–	9.3 mPa·s	–	5.61 mPa·s	–	3.65 mPa·s
101.3 kPa, x1 = 0.6001	12.81 mPa·s	–	8.61 mPa·s	–	5.08 mPa·s	–	3.16 mPa·s
101.3 kPa, x1 = 0.6998	10.51 mPa·s	–	7.1 mPa·s	–	4.26 mPa·s	–	2.64 mPa·s
101.3 kPa, x1 = 0.8	7.76 mPa·s	–	5.27 mPa·s	–	–	–	2.12 mPa·s
101.3 kPa, x1 = 0.9001	5.2 mPa·s	–	3.53 mPa·s	–	2.4 mPa·s	–	1.84 mPa·s

Source: the CheMixHub viscosity set
